The text below walks through data of patent US5756505A, “N-acylpiperazine derivative, antibacterial drug and anti-ulcer drug” (Shiseido Co., Ltd., priority 1995, dated 1998).

The test system of one assay is stress ulcer formation. The assay is described as follows: WIS: Restraint and Water Immersion Stress-Induced Ulcer Inhibition Test. It is filed as in vivo, rat (male Crj:SD or Slc:SD). The note with it: rat; for WIS: ulcer formation inhibitory rate: 100 mg/kg oral, 7 hours stress. The method, then:
WIS: Restraint and Water Immersion Stress-Induced Ulcer Inhibition Test
The degree of inhibition of the stress ulcer formation is tested.
Male Crj:SDor Slc:SD rats (6 to 7-week-old) were fasted overnight, but allowed free access to water. Each group has 5 to 8 of these rats. The sample compound was dissolved or suspended in an aqueous solution of 0.3% sodium carboxymethylcellulose or 0.05% Tween 80 and then was orally administered (100 mg/10 ml/kg). To a control group, the vehicle was administered. 10 minuts later, the rats were placed in a stress cage and immersed to the level of xipfoid process in a water bath (21° C.) for 7 hours. At the end of the stress, the rats were sacrificed by inhalation of ether or carbon dioxide. Then, the stomach of each was removed, inflated by injecting 10 ml of 5% formalin neutral buffer solution, and immersed in 1% formalin neutral buffer solution for 30 minutes or more to be fixed. The stomach was incised along the greater curvature and then the length of each erosion in the glandular portion was determined under dissecting microscope. The sum of the length of erosions per stomach was defined as ulcer index (UI).
The effect obtained when 100 mg/kg of the sample compound had been administered was expressed as ulcer formation inhibitory rate (%) as follows:
ulcer formation inhibitory rate (%)=[1-(UI in sample group/UI in control group)]×100

The next assay has as its system Helicobacter pyroli. The assay is described as follows: AHP: Antibacterial Activity Test Against Helicobacter pyroli. It is filed as cell-based, Helicobacter pyroli NCTC 11637. To be noted: for MIC: Helicobacter, NCTC11637, 168 h, H. pyroli NCTC 11637, agar dilution, 7 days, read-out: AHP: minimum inhibitory concentration (MIC). The method, then: AHP: Antibacterial […] Against Helicobacter pyroli i)Meaning The minimum inhibitory concentration (MIC) against Helicobacter pyroli (microaerophilic gram-negative bacterium which is supposed to deeply involve in pathogenesis, relapse, and recrudescence of ulcer, referred to as "HP" in the following) is measured so as to find out compounds which have antimicrobial activity against Helicobacter pyroli. ii)Method MICs were determined by the agar dilution method. […] Grown colonies were transfered to the same plate and cultured for 3 days under the same condition. […] A 1,000 μg/ml solution of the sample compound containing DMSO not more than 25% was […] diluted 2-fold in sterile purified water. 100 μl volume from each dilution was mixed thoroughly with 900 μl of brucella agar supplemented with 5% horse blood and solidified in a 24 well micro plate. 10 μl of the bacterial suspension (about 10^3 cfu) was inoculated on this plate and cultured for 7 days under the same condition as that of preculture.
On the technique in general: In agar dilution the substance is mixed into plates at graded concentrations.

Assay [1] relates to isolated gastric fundic gland. The assay is described as follows: CAP: Acid Secretion Inhibition Test In Vitro ([14C]-aminopyrine uptake). To be noted: final concentration 10^-5 M, histamine 10^-5 M, rabbit gastric fundic gland; for inhibition at 10 µM: Oryctolagus cuniculus, read-out: CAP: acid secretion inhibitory rate. It is filed as cell-based, rabbit (male Japanese White). The method, then: CAP: Acid Secretion Inhibition Test In Vitro
The acid secretion inhibitory activity in a cell level is studied. It can also be used for studying the mechanism of the effect. […]
ii-a) Preparation of isolated gastric fundus gland suspension
First, an isolated gastric fundic gland sample was prepared. Namely, a male Japanese White rabbit (2.5 to 3 kg) was anesthetized to death with Nembutal™ and then the abdomen was incised. Immediately thereafter, the stomach was removed and, after its pyloric and cardiac antrum were severed, incised along its greater curvature into two sheets. The gastric contents adhering to the mucosal surface was washed out with ice-cooled PBS (-) and then carefully washed therein. The gastric wall was spread on a cork board with its mucosal surface facing up and the feed and mucus thereon were completely removed with sterile gauze. The mucosa was separated therefrom by a spatula and then collected in ice-cooled PBS (-). After being washed twice with PBS (-), the mucosa was minced into 2-3mm^3 pieces by scissors. These pieces were further washed twice with a nutrient solution. The nutrient solution comprises 132.4 mM of NaCl, 5.4 mM of KCl, 5 mM of Na2 HPO4 ·12H2 O, 1 mM of NaH2 PO4 ·2H2 O, 1.2 mM of MgSO4, 1 mM of CaCl2, 25 mM of HEPES, 2mg/ml of glucose, and 1 mg/ml of BSA. Into 70 ml of the nutrient solution containing 1 mg/ml of collagenase, minced mucosal pieces were dispersed and intensely stirred in a conical flask with a stirrer at 37° C. for 40 to 60 minutes. During this period, 100% O2 was sprayed on the nutrient solution surface and the pH was appropriately measured such that it was immediately adjusted to pH 7.4, when the value was therebelow, with a base. The nutrient solution was added to the reaction solution so as to attain the total amount of about 200 ml. After being filtered through a mesh, the suspension was divisionally introduced into 50 ml centrifuge tubes and left for 15 minutes such that gastric fundic gland was deposited. The supernatant was repeatedly removed by an aspirator, dispersed in the nutrient solution, and then left such that the gastric fundic gland was washed three times. At this time, without using a pipette, the suspension was alternately introduced into two centrifuge tubes so as to effect dispersion. The number of cells was counted under microscope and adjusted to 1.6×10^6 cells/ml. […]
ii-b) [^14 C]-aminopyrine uptake test
Then, [^14 C]-aminopyrine uptake test was performed. After an Eppendorf tube was weighed, 10 μl (final concentration: 10^-5 M) of histamine dissolved in the above-mentioned nutrient solution, 10 μl (final concentration: 10^-5 M) of the test compound dissolved in DMSO, and 10 μl (final concentration: 0.05 μCi/ml) of [^14 C]-aminopyrine diluted with the nutrient solution were introduced therein and then 970 μl of the isolated gastric fundic gland suspension prepared above were added thereto. Subsequently, this mixture was shaken at 37° C. for 40 minutes at 125 cycles/minute. After being centrifuged for 30 minutes 200 μl of its supernatant was collected into a mini-vial, while the rest was removed by an aspirator. The gland pellet was completely dried as the tube with its lid being opened was kept for one night in a drying oven at 80° C. and then the lid was closed and the weight was determined at room temperature. Then 100 μl of 1N KOH were added thereto and the tube with its lid being closed was treated at 60° C. for 1 to 2 hours so as to dissolve the pellet. Then, the contents thereof were transferred to a mini-vial. Into the mini-vial containing the supernatant or gland pellet, 4 ml of Atomlite™ were added and then the radioactivity was measured by a liquid scintillation counter. Here, after the radioactivity of the gland pellet was corrected by using a sample in which 20 mM of NaSCN were added so as to cancel the hydrogen ion concentration gradient, the integration ratio of aminopyrine specifically trapped by the gland pellet was calculated. […]

≈ marks a conversion by molar mass, not a printed value.

`CC(C)Cc1cc(C(=O)N2CCN(CC(C)C)CC2)ccc1OCc1ccccc1F` [Example 18, 1-[4-(2-fluorobenzyloxy)-3-isobutylbenzoyl]-4-isobutylpiperazine]: in the assay on stress ulcer formation, the “WIS: ulcer formation inhibitory rate” value stood at 64%. Also, the MIC with Helicobacter pyroli stood at 12.5 µg/mL (≈ 29.3 µM). For the same compound, the inhibition at 10 µM in assay [1] is 100%.
With `CC(C)CN1CCN(C(=O)c2ccc(OCc3ccc(F)cc3)cc2)CC1` [Example 5, 1-[4-(4-fluorobenzyloxy)benzoyl]-4-isobutylpiperazine], in the assay on stress ulcer formation, the “WIS: ulcer formation inhibitory rate” value came to 59%. Besides, the MIC in the assay with Helicobacter pyroli was 12.5 µg/mL (≈ 33.7 µM). Besides, the “CAP: acid secretion inhibitory rate” value in assay [1] stood at 96%.
As to `CC(C)Cc1cc(C(=O)N2CCN(CC(C)C)CC2)ccc1OCc1ccc(F)cc1` [Example 21, 1-[4-(4-fluorobenzyloxy)-3-isobutylbenzoyl]-4-isobutylpiperazine], the “WIS: ulcer formation inhibitory rate” value in the assay on stress ulcer formation was 84%. In addition, the “anti-ulcer effect (in words)” value in the assay with stress ulcer formation (in vivo) is listed as “improved”. In addition, in the assay with Helicobacter pyroli, the “antibacterial activity against Helicobacter pyroli (in words)” value was “improved”. For the same compound, the inhibition at 10 µM in assay [1] is 100%.
On to `CC(C)Cc1cc(C(=O)N2CCN(CC(C)C)CC2)ccc1OCc1ccc(F)cc1F` [Example 27, 1-[4-(2,4-difluorobenzyloxy)-3-isobutylbenzoyl]-4-isobutylpiperazine], for which the “WIS: ulcer formation inhibitory rate” value in the assay on stress ulcer formation stood at 60%. In addition, the MIC with Helicobacter pyroli is 6.25 µg/mL (≈ 14.1 µM). In assay [1], the “CAP: acid secretion inhibitory rate” value is 99%.
On to `CC(C)Cc1cc(C(=O)N2CCN(CC(C)C)CC2)ccc1OCc1ccc(F)cc1F.Cl` [Example 24, 1-[4-(2,4-difluorobenzyloxy)-3-isobutylbenzoyl]-4-isobutylpiperazine hydrochloride], for which the “WIS: ulcer formation inhibitory rate” value with stress ulcer formation was determined as 72%. Also, the MIC in the assay with Helicobacter pyroli came out at 6.25 µg/mL. In addition, the inhibition at 10 µM in assay [1] came out at 99%.
`C=C(C)Cc1cc(C(=O)N2CCN(CC(C)C)CC2)ccc1OCc1ccc(F)cc1.Cl` [Example 4, 1-[4-(4-fluorobenzyloxy)-3-methallylbenzoyl]-4-isobutylpiperazine hydrochloride]: the “WIS: ulcer formation inhibitory rate” value in the assay on stress ulcer formation is given as 65%. Also, the MIC in the assay on Helicobacter pyroli came to 25 µg/mL. Further, in assay [1], the inhibition at 10 µM came out at 94%.
